The values that follow come from patent publication US10369187B2, “Peptide regulators of JNK family kinases” (Vanderbilt University, priority 2017, dated 2019).

The subject of test [1] is ARR3-dependent activation of the JNK pathway. The test is described as follows: Suppression of ARR3-dependent JNK activation (peptide co-expressed with full-length ARR3, Western blot). As to conditions: for JNK activity on co-expression with full-length ARR3, comparison of shorter peptides: Western blot. Type of test: cell-based. From the text:
FIG. 9. The ARR3-derived T1A15 peptide is capable of reducing ARR3-dependent activation of the JNK pathway. (A) Dose-dependent action of Venus-T1A15 on the JNK activity. Upper blot panel—T1A15 was expressed at increasing concentration with full-length ARR3. Cells expressing GFP (negative control) and full-length ARR3 only (positive control) are shown for comparison. Note the reduced activity of HA-JNK3α2 expressed in the cells as well as that of endogenous INK isoforms (p54 and p46 bands). The lower panels show corresponding expression of GFP, full-length ARR3 and increasing concentrations of Venus-T1A15. (B) Comparison of the activity of shorter ARR3-derived peptides. Three shorter peptides, T1A15, T1A14, and T1A13, were co-expressed with full-length ARR3, and the INK activity assessed by western blot.
First, the action of arrestin-3-derived peptides expressed in cultured cells on JNK3 activity was investigated.
In general terms: In western blotting, separated proteins are transferred to a membrane and probed.

Test [2] relates to WT hemiparkinsonian mice. The test is described as follows: L-DOPA-induced rotations in hemiparkinsonian WT mice. Type of test: in vivo, mouse. As to conditions: peptide expressed under CMV promoter in striatal neurons, versus GFP. From the text:
FIG. 11. Inhibition of L-DOPA-induced rotations in WT mice by ARR3-derived peptide T1A15 inhibiting JNK3. The arrestin-3-derived peptide T1A15 expressed under CMV promoter in striatal neurons inhibited rotations in WT mice as compared to WT mice expressing GFP.
(§1) The mice were rendered hemiparkinsonian by the unilateral injection of the dopaminergic neurotoxin 6-hydroxydopamine. Such animals develop contralateral rotations of increasing frequency in response to repeated administration of L-DOPA. ARR3 knockout mice (KO) have lower propensity than wild type (WT) animals to such rotations.

For test [3], the system named is ASK1-MKK4/7-JNK3 signaling cascade. The test is described as follows: In cell JNK3 activation assay (co-expression with HA-ASK1 and HA-JNK3α2, phospho-JNK Western blot). Type of test: cell-based, African green monkey. As to conditions: for in cell JNK3α2 activation (phospho-JNK3 densitometry): Example 2, YFP/Venus constructs with HA-ASK1, HA-JNK3α2 in COS7 cells; for JNK3 phosphorylation in cells, HA-tagged arrestins and separated domains: co-expressed with ASK1 and JNK3 in COS7 cells. The protocol: COS-7 African green monkey cells were maintained in DMEM supplemented with 10% heat-inactivated FBS (Invitrogen), penicillin, and streptomycin at 37° C. in a humidified incubator with 5% CO2. The cells were plated at 80-90% confluence and transfected using Lipofectamine 2000 (Invitrogen) according to the manufacturer's instructions. Cells were used 48 h post-transfection and serum-starved overnight before experiments.
COS-7 cells were incubated with phosphatase inhibitors (50 mM NaF and 10 mM Na3VO4) in serum-free medium for 15 min at 37° C.; washed with cold PBS; and lysed with SDS lysis buffer containing 1% SDS, 10 mM Tris (pH7.4), 10 mM NaF, 100 μM Na3VO4, 2 mM EDTA, 2 mM benzamidine and 1 mM PMSF. JNKs activity was assayed by Western blotting using an antibody specific for phosphorylated JNK to detect phosphorylated (active) JNKs^17,20,23. Whole cell lysates were boiled for 5 min and centrifuged at 10,000×g for 10 min, and the supernatants were used for Western blotting. Protein was measured using the Bio-Rad Coomassie Blue assay. The proteins were resolved on 8% SD S-PAGE and transferred to PVDF membrane (Millipore, Bedford, Mass.). Blots were incubated with the primary antibodies (Cell Signaling Technology, Inc) anti-phospho-JNK, anti-JNK, anti-HA (6E2) (1:1000 to 1:5000), followed by appropriate HRP-conjugated secondary antibodies. Protein bands were detected by enhanced chemiluminescence (ECL, Pierce), followed by exposure to x-ray film. To quantify phospho-JNKs, serial dilutions of anisomycin (1 μg/ml)-stimulated HEK-A cell lysates were used to ensure that all samples were in linear range. The values for these proteins are expressed in arbitrary units.
The JNK3 activation was next tested in cells (See FIG. 7). COS7 cells were transfected with HA-ASK1, HA-JNK3α2, and YFP-arrestin constructs to measure in cell JNK3α2 activation. Phospho-JNK3 is shown as the uppermost band in the Western analysis, and was analyzed by densitometric quantification using Quantity One software (quantification in bottom panel). […] The data were statistically analyzed by ANOVA with protein as the main factor. Significance of the difference from control (p values) is indicated.
In Cell JNK3 Activation Assay COS7 African green monkey cells were sustained in DMEM solution containing 10% heat-inactivated FBS (Invitrogen), penicillin, and streptomycin at 37° C. and 5% CO2. Cells were transfected at 90-100% confluency in 6-well plates with pcDNA3-HA-ASK1 (0.4 ug), pcDNA3-HA-JNK3α2 (0.2 ug), and pcDNA3-Venus arrestin constructs (0.2-0.6 ug) at a 1:2 ratio of DNA:Lipofectamine 2000 (Invitrogen). At 48 hrs post-transfection, the cells were incubated with phosphatase inhibitors (20 mM NaF and 1 mM Na3VO4) in PBS for 15 mins, washed twice with cold PBS, and lysed using 50 mM Tris (pH 7.8), 2 mM EDTA, 250 mM NaCl, 10% Glycerol, 0.5% NP-40, 2 mM benzamide, and 1 mM PMSF. Protein concentration was measured using the Bio-Rad Quick Start™ Bovine Serum Albumin (BSA) Standard Set. The proteins were subjected to 10% SDS-PAGE and transferred to PVDF membrane (Millipore, Bedford, Mass.). Membranes were incubated with respective primary antibodies (Cell Signaling Technology, Inc.) anti-ASK1 (#3762S), anti-phospho-JNK (#9251), anti-SAPK/JNK (#9252P), anti-GST (#2625), or anti-HA (#3724), followed by the appropriate HRP-conjugated secondary antibodies. Bands were detected by x-ray film using enhanced chemiluminescence (ECL, Pierce) and quantification was done using the software Quantity One (BioRad).

For test [4], the system named is hemiparkinsonian ARR3 KO mice. The test is described as follows: L-DOPA-induced rotations in hemiparkinsonian ARR3 KO mice. Format: in vivo, mouse. How it is done:
FIG. 10. Rescue of L-DOPA-induced rotations in ARR3 KO mice by T1A16. Data are shown as means±S.E.M. Mice were pre-tested for L-DOPA-induced rotations before receiving lentiviruses. Respective lentiviruses were injected into the dorsolateral striatum of ARR3 KO mice. WT mice received GFP. […] In contrast, selective expression of T1A16 in striatopallidal MSNs under control of the enkephaline (ENK) promoter was ineffective. […] Significance levels are by Bonferroni post hoc test across all testing sessions.
Next, arrestin-3-derived peptides T1A16 and T1A15 were investigated for activity in the animal model of L-DOPA-induced dyskinesia. It was shown that the peptides expressed as Venus fusions in the motor striatum of hemiparkinsonian mice via lentivirus-mediated gene transfer modulate the manifestations of L-DOPA-induced dyskinesia (LID). The mice lacking ARR3 have reduced LID, and restoration of ARR3 into the motor striatum via lentivirus-mediated gene transfer rescues LID in these animals.
as §1

Test [5] has as its target T1, MKK4 (Homo sapiens, UniProt P45985).
T1 sequence (P45985 1-399): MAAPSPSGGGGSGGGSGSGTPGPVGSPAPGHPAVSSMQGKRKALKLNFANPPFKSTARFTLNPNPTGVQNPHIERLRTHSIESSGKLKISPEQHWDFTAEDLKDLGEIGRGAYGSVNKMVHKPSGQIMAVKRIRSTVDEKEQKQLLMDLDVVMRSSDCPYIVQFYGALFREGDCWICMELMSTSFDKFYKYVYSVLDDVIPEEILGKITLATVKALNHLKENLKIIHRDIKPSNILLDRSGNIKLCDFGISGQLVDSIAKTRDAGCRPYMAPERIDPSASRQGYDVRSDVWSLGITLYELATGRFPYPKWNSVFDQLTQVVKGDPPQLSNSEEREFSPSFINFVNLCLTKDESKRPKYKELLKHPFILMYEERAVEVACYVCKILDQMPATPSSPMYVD
The test is described as follows: MBP pull-down of purified MKK4. Type of test: binding. The conditions noted are these: MBP pull-down, purified proteins. The protocol:
T1A was expressed in E. coli as an MBP-fusion and purified it on an amylose column^23. The ability of purified GST-MKK4 or GST-MKK7 (FIG. 1A) to bind MBP-T1A immobilized on an amylose column was tested in an in vitro pull-down assay, where MBP and MBP-arrestin-3 served as negative and positive controls, respectively (FIG. 1B). MBP-T1A, but not control MBP, effectively retained both kinases (FIG. 1B). […] Next, it was tested whether T1A binds the uppermost kinase in the cascade, ASK1. Because ASK1 is not available in purified form, HA-tagged ASK1 and YFP-tagged T1A (using YFP as a control) were co-expressed in COS7 cells, lysed the cells, and immunoprecipitated YFP constructs with anti-GFP antibody (FIG. 1C).
To make MBP-fusions containing arrestin-2/3 elements, the cDNAs encoding arrestin fragments were subcloned into pMal-p2T (generous gift from Dr. Keiji Tanaka, Tokyo Institute of Medical Science) between Eco RI and Xho I sites in frame with MBP, as described^23. MBP-Arr3 (full-length arrestin-3) was created by subcloning the corresponding cDNA into pMal-p2T between Eco RI and Not I sites^23. All MBP-arrestin-3 fusion proteins contained the same […] (SEQ ID NO:29) linker between MBP and arrestin-3 or its fragments. The MBP protein used as negative control was purified using empty pMal-p2T vector containing the same linker with 10 additional residues: […] (SEQ ID NO:30). MBP fusions were purified, as described^23. MBP pull-down was performed, as described^23. Briefly, Indicated MBP fusions (10-30 μg in 50 μL 20 mM Tris/150 mM NaCl) were immobilized on amylose resin (25 μL, 50% slurry, New England Biolabs) for 1 h at 4° C. with slight rotation. Purified, as described^40, MKK4/7 (10 μg in 50 μL 20 mM Tris/150 mM NaCl) were added to the immobilized MBP fusions and rotated gently for 2 h at 4° C. Samples were transferred to centrifuge filters (Durapore®-PVDF-0.65 μm), washed three times with 50 mM HEPES-Na, pH 7.3, 150 mM NaCl. The proteins were eluted by 100 μl of elution buffer (wash buffer containing 50 mM maltose) by gentle rotation for 5 min at 4° C. Eluates were analyzed by SDS-PAGE and Western blotting.

The target of test [6] is MKK7-JNK3 module (Homo sapiens, UniProt O14733+P53779). The conditions noted are these: previously found, reference 20; cited from earlier work.
Chain of MKK7-JNK3 module (O14733 whole entry): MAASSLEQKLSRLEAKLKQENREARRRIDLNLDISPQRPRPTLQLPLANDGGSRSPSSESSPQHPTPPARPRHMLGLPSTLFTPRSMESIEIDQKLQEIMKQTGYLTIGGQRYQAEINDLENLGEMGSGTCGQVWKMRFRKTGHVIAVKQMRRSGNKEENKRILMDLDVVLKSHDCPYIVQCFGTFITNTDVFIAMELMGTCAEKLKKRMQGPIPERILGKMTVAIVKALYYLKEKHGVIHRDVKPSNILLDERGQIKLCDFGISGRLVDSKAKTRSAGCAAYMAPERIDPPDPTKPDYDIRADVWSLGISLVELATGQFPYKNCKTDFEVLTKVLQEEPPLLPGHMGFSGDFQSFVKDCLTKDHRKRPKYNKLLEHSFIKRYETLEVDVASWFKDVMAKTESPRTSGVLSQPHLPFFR
Chain of MKK7-JNK3 module (P53779 whole entry): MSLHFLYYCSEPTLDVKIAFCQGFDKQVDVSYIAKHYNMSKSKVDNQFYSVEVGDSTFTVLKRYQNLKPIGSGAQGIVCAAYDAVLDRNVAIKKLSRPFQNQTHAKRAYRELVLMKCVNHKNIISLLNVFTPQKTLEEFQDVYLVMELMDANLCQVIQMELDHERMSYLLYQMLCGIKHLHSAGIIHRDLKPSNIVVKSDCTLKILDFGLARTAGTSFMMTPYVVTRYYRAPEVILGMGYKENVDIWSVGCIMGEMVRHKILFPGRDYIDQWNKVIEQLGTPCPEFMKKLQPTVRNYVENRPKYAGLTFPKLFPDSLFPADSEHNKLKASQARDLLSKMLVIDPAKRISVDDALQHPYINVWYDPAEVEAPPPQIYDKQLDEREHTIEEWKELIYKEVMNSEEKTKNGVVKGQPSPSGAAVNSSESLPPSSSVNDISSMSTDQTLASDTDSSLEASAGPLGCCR
Test [7] has as its target MKK4-JNK3 module (Homo sapiens, UniProt P45985+P53779). The conditions noted are these: previously found, reference 20; cited from earlier work.

Chain of MKK4-JNK3 module (P53779 whole entry, one chain of several): as the sequence (P53779 whole entry) above

As to KKSSPNCKLTVYLG (bovine) [T1A14], the “JNK activity on co-expression with full-length ARR3, comparison of shorter peptides” value (shortened to “JNK activity on co-expression”) in test [1] is listed as “marginally effective”.
On to TRVFKKSSPNCKLTV (bovine) [T1A15], for which the “L-DOPA-induced rotations in WT mice” value in test [2] was “able to suppress the rotational behavior”. Moreover, the “in cell JNK3α2 activation (phospho-JNK3 densitometry)” value (“in cell JNK3α2 activation” below) in test [3] is listed as “inhibit JNK3 activation”. The “ARR3-dependent JNK activation at increasing peptide expression” value in test [1] (Venus-T1A15 co-expressed with full-length ARR3) is on record as “reducing arrestin-3-dependent activation of JNK3 as well as other JNK isoforms in a dose dependent manner”. Further, the “JNK activity on co-expression” value in test [1] is recorded as “effectively suppressed”.
For the molecule VFKKSSPNCKLTV (bovine) [T1A13], the “JNK activity on co-expression” value in test [1] is “no effect”.
As for VFKKSSPNCKLTVYLG (bovine) [T1A16], the “L-DOPA-induced rotations in ARR3 KO mice, expression in striatonigral MSNs” value in test [4] (lentivirus, dynorphine (DYN) promoter) is “fully rescued rotations in A3KO mice”. In addition, in test [4] (lentivirus, enkephaline (ENK) promoter), the “L-DOPA-induced rotations in ARR3 KO mice, expression in striatopallidal MSNs” value is listed as “ineffective”. Also, the “L-DOPA-induced rotations in ARR3 KO mice” value in test [4] (peptide expressed in striatum via lentivirus, 6-hydroxydopamine lesion) is listed as “fully restores rotations in ARR3 KO mice to the level of that in WT mice”. Moreover, the “in cell JNK3α2 activation” value in test [3] is listed as “facilitates JNK3 activation”. For the same molecule, the “JNK3 activation at increasing peptide expression” value in test [3] (Example 3, T1A16-Venus expressed in Cos7 cells) was “dose-dependently activates JNK3”.
For “arrestin-3: full-length arrestin-3 (bovine) protein, scaffold of ASK1-MKK4/7-JNK3 cascade”, in test [5], the “interaction with MKK4 compared with MKK7” value is given as “stronger interaction with MKK4 than with MKK7”. For the same molecule, in test [3], the “in cell JNK3α2 activation” value is on record as “facilitates JNK3 activation”; the “JNK3 phosphorylation in cells, HA-tagged arrestins and separated domains” value is recorded as “significantly increases JNK3 phosphorylation in cells”. Besides, the “JNK3 phosphorylation in cells, YFP fusions” value in test [3] (YFP fusions co-expressed with JNK3 and ASK1 in COS7 cells) was “increased the level of JNK3 phosphorylation”. Moreover, in test [6], the “optimal concentration for scaffolding MKK7-JNK3 module” value is approximately 6 µM. Also, the “optimal concentration for scaffolding MKK4-JNK3 module” value in test [7] is approximately 0.6 µM. In test [1], the “JNK activity on co-expression” value was “induced the JNK activation”.

B1: arrestin-2: full-length non-visual arrestin-2 protein, does not promote JNK3 activation (protein, UniProt P17870 1-418, looked up)
chain: MGDKGTRVFKKASPNGKLTVYLGKRDFVDHIDLVEPVDGVVLVDPEYLKERRVYVTLTCAFRYGREDLDVLGLTFRKDLFVANVQSFPPAPEDKKPLTRLQERLIKKLGEHAYPFTFEIPPNLPCSVTLQPGPEDTGKACGVDYEVKAFCAENLEEKIHKRNSVRLVIRKVQYAPERPGPQPTAETTRQFLMSDKPLHLEASLDKEIYYHGEPISVNVHVTNNTNKTVKKIKISVRQYADICLFNTAQYKCPVAMEEADDTVAPSSTFCKVYTLTPFLANNREKRGLALDGKLKHEDTNLASSTLLREGANREILGIIVSYKVKVKLVVSRGGLLGDLASSDVAVELPFTLMHPKPKEEPPHREVPEHETPVDTNLIELDTNDDDIVFEDFARQRLKGMKDDKEEEEDGTGSPRLNDR
modifications: full-length
As to B1, the “JNK3 phosphorylation in cells, HA-tagged arrestins and separated domains” value in test [3] is reported as “does not”.
